Assay results reported in a compilation of properties of binary mixtures (doi:10.1021/je5008857).

Test: xn = mol fraction of the nth substance listed
Conditions: 101 kPa

CC(=O)[O-].CC[n+]1ccn(C)c1 + CC(=O)[O-].[Na+]
x2 = 0
Conditions | electrical conductivity [S/m] | viscosity [mPa·s]
298.15 K | 0.287 | 126.3
303.15 K | 0.374 | 93.6
308.15 K | 0.473 | 71.3
313.15 K | 0.587 | 55.5
318.15 K | 0.76 | 44.2
323.15 K | 0.918 | 35.7

[Cl-].[NH4+] + CC(=O)[O-].CC[n+]1ccn(C)c1
Conditions | electrical conductivity, x1 = 0.0505 [S/m] | electrical conductivity, x1 = 0.0999 [S/m] | electrical conductivity, x1 = 0.1702 [S/m] | electrical conductivity, x1 = 0.25 [S/m] | electrical conductivity, x1 = 0.3297 [S/m] | viscosity, x1 = 0.0505 [mPa·s] | viscosity, x1 = 0.0999 [mPa·s] | viscosity, x1 = 0.1702 [mPa·s] | viscosity, x1 = 0.25 [mPa·s] | viscosity, x1 = 0.3297 [mPa·s]
298.15 K | – | 0.19 | 0.139 | 0.0911 | 0.0567 | – | 236 | 405 | 775 | 1608
303.15 K | – | 0.255 | 0.192 | 0.13 | 0.0843 | – | 168 | 278 | 511 | 1040.8
308.15 K | 0.398 | 0.333 | 0.259 | 0.179 | 0.121 | 92.9 | 122.6 | 196 | 348 | 693
313.15 K | 0.501 | – | – | 0.242 | 0.169 | 71 | – | – | 245 | 478
318.15 K | – | 0.537 | 0.439 | 0.32 | 0.23 | – | 70.2 | 106.2 | 177 | 339
323.15 K | – | 0.661 | 0.552 | 0.414 | 0.305 | – | 54.7 | 80.6 | 130.5 | 246

CC(=O)[O-].[NH4+] + CC(=O)[O-].CC[n+]1ccn(C)c1
Conditions | electrical conductivity [S/m] | viscosity [mPa·s]
298.15 K, x1 = 0.0503 | 0.255 | 153
298.15 K, x1 = 0.0999 | 0.226 | 186
298.15 K, x1 = 0.1703 | 0.181 | 261
298.15 K, x1 = 0.2498 | 0.146 | 389
298.15 K, x1 = 0.328 | 0.114 | 572
303.15 K, x1 = 0.0503 | 0.337 | 111.7
303.15 K, x1 = 0.0999 | 0.299 | 134.7
303.15 K, x1 = 0.1703 | 0.242 | 186
303.15 K, x1 = 0.2498 | 0.199 | 271
303.15 K, x1 = 0.328 | 0.158 | 390
303.15 K, x1 = 0.4491 | 0.106 | 673
308.15 K, x1 = 0.0503 | 0.431 | 83.9
308.15 K, x1 = 0.0999 | 0.389 | 100.1
308.15 K, x1 = 0.1703 | 0.319 | 135.5
308.15 K, x1 = 0.2498 | 0.266 | 194
313.15 K, x1 = 0.0503 | 0.542 | 64.6
313.15 K, x1 = 0.2498 | 0.349 | 142.3
313.15 K, x1 = 0.4491 | 0.201 | 321
318.15 K, x1 = 0.0503 | 0.671 | 50.7
318.15 K, x1 = 0.0999 | 0.617 | 59.1
318.15 K, x1 = 0.1703 | 0.519 | 77.2
318.15 K, x1 = 0.4491 | 0.267 | 230
323.15 K, x1 = 0.0503 | 0.862 | 40.5
323.15 K, x1 = 0.0999 | 0.796 | 46.6
323.15 K, x1 = 0.1703 | 0.641 | 59.9
323.15 K, x1 = 0.2498 | 0.562 | 81.3
323.15 K, x1 = 0.328 | 0.471 | 108.4
323.15 K, x1 = 0.4491 | 0.347 | 169

CC(=O)[O-].CC[n+]1ccn(C)c1 + [Cl-].[NH4+]
x2 = 0
Conditions | electrical conductivity [S/m] | viscosity [mPa·s]
298.15 K | 0.287 | 126.3
303.15 K | 0.374 | 93.6
313.15 K | 0.587 | 55.5
323.15 K | 0.918 | 35.7

CC(=O)[O-].CC[n+]1ccn(C)c1 + N#C[S-].[Na+]
x2 = 0
Conditions | electrical conductivity [S/m] | viscosity [mPa·s]
298.15 K | 0.287 | 126.3
308.15 K | 0.473 | 71.3
318.15 K | 0.76 | 44.2
323.15 K | 0.918 | 35.7

CCS(=O)(=O)[O-].[NH4+] + CC(=O)[O-].CC[n+]1ccn(C)c1
Conditions | electrical conductivity, x1 = 0.05 [S/m] | electrical conductivity, x1 = 0.0999 [S/m] | electrical conductivity, x1 = 0.1701 [S/m] | viscosity, x1 = 0.05 [mPa·s] | viscosity, x1 = 0.0999 [mPa·s] | viscosity, x1 = 0.1701 [mPa·s]
298.15 K | 0.247 | 0.2 | 0.164 | 157 | 210 | 299
303.15 K | 0.323 | 0.266 | 0.222 | 115 | 151 | 210
308.15 K | 0.415 | 0.346 | 0.293 | 86.3 | 111.2 | 151
313.15 K | 0.522 | 0.442 | – | 66.2 | 83.9 | –
318.15 K | – | 0.553 | 0.481 | – | 64.6 | 84.7
323.15 K | 0.775 | – | – | 41.3 | – | –

CC(=O)[O-].[Na+] + CC(=O)[O-].CC[n+]1ccn(C)c1
Conditions | electrical conductivity, x1 = 0.0501 [S/m] | electrical conductivity, x1 = 0.1001 [S/m] | electrical conductivity, x1 = 0.1605 [S/m] | viscosity, x1 = 0.0501 [mPa·s] | viscosity, x1 = 0.1001 [mPa·s] | viscosity, x1 = 0.1605 [mPa·s]
298.15 K | 0.232 | 0.189 | 0.152 | 160 | 205 | 300
303.15 K | 0.305 | – | 0.207 | 117.1 | – | 210
308.15 K | 0.392 | 0.327 | 0.272 | 88 | 109.3 | 153
313.15 K | 0.491 | 0.416 | 0.352 | 67.7 | 83.1 | 113.7
318.15 K | 0.606 | 0.518 | 0.442 | 53.2 | 64.7 | 86.9
323.15 K | 0.734 | 0.632 | 0.537 | 42.7 | 51.3 | 67.9

CC(=O)[O-].CC[n+]1ccn(C)c1 + CCS(=O)(=O)[O-].[NH4+]
x2 = 0
Conditions | electrical conductivity [S/m] | viscosity [mPa·s]
298.15 K | 0.287 | 126.3
308.15 K | 0.473 | 71.3
313.15 K | 0.587 | 55.5
323.15 K | 0.918 | 35.7

CC(=O)[O-].CC[n+]1ccn(C)c1 + CC(=O)[O-].[NH4+]
x2 = 0
Conditions | electrical conductivity [S/m] | viscosity [mPa·s]
298.15 K | 0.287 | 126.3
303.15 K | 0.374 | 93.6
308.15 K | 0.473 | 71.3
313.15 K | 0.587 | 55.5
318.15 K | 0.76 | 44.2

N#C[S-].[Na+] + CC(=O)[O-].CC[n+]1ccn(C)c1
x1 = 0.0502
Conditions | electrical conductivity [S/m] | viscosity [mPa·s]
298.15 K | 0.242 | 150
303.15 K | 0.316 | 110.4
308.15 K | 0.404 | 83.3
313.15 K | 0.504 | 64.4
318.15 K | 0.618 | 50.9
323.15 K | 0.734 | 40.9
